According to ChEMBL document CHEMBL1201862, “PubChem BioAssay data set” (2004):
The source made the active and inactive calls.

Key:
[1] = A Cell Based Secondary Assay To Explore Cytotoxicity of Compounds that Sensitize Mycobacterium Tuberculosis to Beta-Lactam Antibiotics.; format: functional
[2] = reduced cellular PGC1a acetyl-lysine signal – cell-based, cherry-picked samples, dose response (AID 720514); format: functional;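 note: potency may reflect raised or lowered acetylation signal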
[3] = luciferase reporter signal suppression in cells – H4 neuroglioma cells, luminescence, dose response (AID 1990); format: functional, cell-based
[4] = alpha-synuclein stem-loop luciferase translation blockers – H4 neuroglioma cells, luminescence, confirmation (AID 1988); format: functional, cell-based
[5] = Luminescence Cell-Based Dose Response HTS to Identify Inhibitors of 5'UTR Stem-Loop Driven Prion Protein mRNA Translation in H4 Neuroglioblastoma Cells. [Related pubchem assays: 1827 (Project Summary), 1813 (Primary HTS)]; format: functional
BJ [6] = assay: cells; format: functional, cell-based; conditions: Homo sapiens
BJ [7] = assay: BJ-TERT-LT-ST fibroblast viability loss – cell-based, RAS-independent, luminescence, dose response (AID 1935); format: functional; conditions: Homo sapiens;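 note: BJ fibroblasts immortalized with TERT plus LT and ST oncogenes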
BJ [8] = assay: BJ-TERT fibroblast viability loss – cell-based, RAS-independent, luminescence, dose response (AID 1933); format: functional; conditions: Homo sapiens
[9] = DRD fibroblast viability loss – cell-based, non-viral oncogenic, luminescence, dose response (AID 1934); format: functional; conditions: Homo sapiens
[10] = NIH-3T3 fibroblast cytotoxicity, dose response, cytotoxicity control, cell-based, fluorescence, Alamar Blue, secondary assay (AID 2327); format: functional;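 note: NIH-3T3 mouse fibroblasts cultured with fluconazole at 8 µg/mL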
Bcl-2-related protein A1 = target: T1, Bcl-2-related protein A1 (Mus musculus, UniProt Q07440); format: functional;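 note: confirmatory dose–response counterscreen on Bfl-1, used to check hits from a UBC13 polyubiquitin inhibitor campaign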
T1 sequence (Q07440 whole entry): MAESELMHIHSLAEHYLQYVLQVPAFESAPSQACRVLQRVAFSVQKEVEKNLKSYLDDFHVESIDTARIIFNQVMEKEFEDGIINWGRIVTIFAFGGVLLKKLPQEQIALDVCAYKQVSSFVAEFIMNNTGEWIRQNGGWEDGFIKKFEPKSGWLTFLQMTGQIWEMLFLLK

[11] = general cell-killing toxicity readout – plate reader, dry powder samples, cytotoxicity control for PAX8 inhibitor project, dose response (AID 743021); format: functional, cell-based
Paired box protein Pax-8 = Paired box protein Pax-8 (Homo sapiens, UniProt Q06710); assay: PAX8 transcriptional activity inhibition in RMG-I – RMG-I cells, luciferase, cherry-pick, dose response (AID 687027); format: functional, cell-based;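 note: luciferase reporter driven by Pax8 target thyroperoxidase promoter measured by SteadyGlo luminescence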
[12] = Luminescence Cell-Based Dose Retest to Confirm Inhibitors of Cancer Stem Cells. [Related pubchem assays (depositor defined):AID2717, AID2721]; format: functional; conditions: Homo sapiens
[13] = target: T2, Ubiquitin-conjugating enzyme E2 N (Homo sapiens, UniProt P61088); format: functional
T2 sequence (P61088 whole entry): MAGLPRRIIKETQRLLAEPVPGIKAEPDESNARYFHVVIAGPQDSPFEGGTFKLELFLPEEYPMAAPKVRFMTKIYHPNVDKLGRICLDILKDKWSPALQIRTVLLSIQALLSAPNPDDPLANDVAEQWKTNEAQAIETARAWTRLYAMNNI

[14] = target: T3, DNA repair protein RAD52 homolog (Homo sapiens, UniProt P43351); format: functional, biochemical
T3 sequence (P43351 whole entry): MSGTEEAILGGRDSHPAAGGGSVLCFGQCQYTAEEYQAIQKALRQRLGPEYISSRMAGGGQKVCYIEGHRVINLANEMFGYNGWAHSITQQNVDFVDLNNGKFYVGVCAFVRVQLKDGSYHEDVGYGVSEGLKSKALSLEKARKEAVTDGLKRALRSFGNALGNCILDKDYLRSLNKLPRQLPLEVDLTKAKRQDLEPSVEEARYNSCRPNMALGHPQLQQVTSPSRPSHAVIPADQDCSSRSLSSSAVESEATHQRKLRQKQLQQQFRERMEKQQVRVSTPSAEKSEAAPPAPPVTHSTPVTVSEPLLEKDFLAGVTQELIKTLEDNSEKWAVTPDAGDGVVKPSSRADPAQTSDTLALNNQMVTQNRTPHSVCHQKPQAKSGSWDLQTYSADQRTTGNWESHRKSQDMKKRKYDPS

[15] = target: T2, Ubiquitin-conjugating enzyme E2 N; format: functional; remark: listed apart in the source
[16] = fluconazole-exposed Candida albicans growth modulators – fluorescence, retest, confirmation (AID 2467); format: functional, cell-based
[17] = toxicity to human hepatoma HepG2 cells – cell-based, cherry-picked samples, cytotoxicity control, dose response (AID 1159577); format: functional
[18] = P. falciparum Dd2 growth inhibitors, dose response, SYBR Green, cherry-picked samples (AID 1159567); format: functional, cell-based
[19] = target: E3 ubiquitin-protein ligase Mdm2 (Homo sapiens, UniProt Q00987); assay: MDM2-luc reporter signal enhancers, multi-concentration potency testing, MDM2 ubiquitin-protein ligase inhibitor program, whole-cell format, luminescence detection, 384-well microplate (AID 1394); format: functional;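 note: MDM2 E3 inhibitors raise luminescence so EC50 is for signal enhancement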
INS1 = assay: INS-1E survival protection against cytokine death – cell-based, luminescence, retest, dose response (AID 449756); format: functional; conditions: Rattus norvegicus;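 note: cell death triggered by IL-1 beta plus TNF-alpha plus IFN-gamma mixture; protective hits raise ATP signal compared with cytokine alone wells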
[20] = system: Streptococcus sp. 'group A'; assay: Streptococcus pyogenes SK(-)GAS viability under kanamycin – luminescence, BacTiterGlo, confirmation, counter-screen for streptokinase expression inhibitor project, dose response (AID 1900); format: functional, organism-based
Streptococcus = assay: GAS UMAA2166 growth inhibition – luminescence, BacTiterGlo, counter-screen for streptokinase expression inhibitor project, dose response (AID 1915); format: functional, organism-based;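 note: potency for reduction of bacterial viability or growth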
X-box-binding protein 1 = target: T4, X-box-binding protein 1 (Homo sapiens, UniProt P17861); format: functional, Cricetulus griseus;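 note: confirmatory dose-response counter-screen serving a CHOP assay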
T4 sequence (P17861 whole entry): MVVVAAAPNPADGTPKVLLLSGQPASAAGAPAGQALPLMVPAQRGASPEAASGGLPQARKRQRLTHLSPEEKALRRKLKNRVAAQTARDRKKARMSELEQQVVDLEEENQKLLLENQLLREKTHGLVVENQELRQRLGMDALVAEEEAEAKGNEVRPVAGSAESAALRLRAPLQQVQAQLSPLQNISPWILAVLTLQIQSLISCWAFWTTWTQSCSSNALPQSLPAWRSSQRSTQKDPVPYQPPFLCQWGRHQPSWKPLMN

Streptokinase A = target: T5, Streptokinase A (Streptococcus pyogenes serotype M1, UniProt P10520); assay: viability-normalized secreted streptokinase activity reduction – plasminogen activation absorbance, OD405, dose response (AID 1914); format: functional, Streptococcus pyogenes M1 GAS;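 note: secreted streptokinase activity via plasminogen activation per viability signal from cell pellet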
T5 sequence (P10520 whole entry): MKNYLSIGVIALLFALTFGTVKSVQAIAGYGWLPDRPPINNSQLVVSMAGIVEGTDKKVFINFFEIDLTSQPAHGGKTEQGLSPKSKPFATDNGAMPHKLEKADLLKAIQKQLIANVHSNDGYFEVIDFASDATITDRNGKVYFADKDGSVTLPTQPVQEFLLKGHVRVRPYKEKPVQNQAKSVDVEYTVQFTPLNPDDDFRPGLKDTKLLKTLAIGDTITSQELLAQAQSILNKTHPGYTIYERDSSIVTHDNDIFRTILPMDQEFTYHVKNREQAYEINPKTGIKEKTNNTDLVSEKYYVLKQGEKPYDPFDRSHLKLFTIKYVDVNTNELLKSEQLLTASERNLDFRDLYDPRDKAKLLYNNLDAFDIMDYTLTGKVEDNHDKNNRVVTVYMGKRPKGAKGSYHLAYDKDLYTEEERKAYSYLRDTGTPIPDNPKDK

[21] = microbe, parasite or virus in culture; format: functional; conditions: Mycobacterium tuberculosis
[22] = HIV-1 Vif–A3G interaction blockers – biochemical, TR-FRET, GST-Vif 1-94, biotin-A3G peptide, dose response retest, primary screen (AID 1117319); format: functional;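 note: TR-FRET signal of purified GST-Vif binding a biotinylated A3G peptide; inhibitors lower the FRET signal by blocking Vif and A3G binding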

Paired box protein Pax-8, sequence (Q06710 whole entry): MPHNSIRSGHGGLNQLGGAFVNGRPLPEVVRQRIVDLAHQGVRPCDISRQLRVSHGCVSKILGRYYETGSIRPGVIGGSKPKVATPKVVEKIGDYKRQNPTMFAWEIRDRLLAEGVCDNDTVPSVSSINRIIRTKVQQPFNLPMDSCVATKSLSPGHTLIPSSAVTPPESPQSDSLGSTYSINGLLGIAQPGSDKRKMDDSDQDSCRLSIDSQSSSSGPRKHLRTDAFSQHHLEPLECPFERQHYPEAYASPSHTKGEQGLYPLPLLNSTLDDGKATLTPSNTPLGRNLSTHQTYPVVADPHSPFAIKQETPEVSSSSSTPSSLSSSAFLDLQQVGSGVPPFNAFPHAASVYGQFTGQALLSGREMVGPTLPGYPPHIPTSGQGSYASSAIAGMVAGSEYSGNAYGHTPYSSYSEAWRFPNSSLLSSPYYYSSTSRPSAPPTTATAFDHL
E3 ubiquitin-protein ligase Mdm2, sequence (Q00987 whole entry): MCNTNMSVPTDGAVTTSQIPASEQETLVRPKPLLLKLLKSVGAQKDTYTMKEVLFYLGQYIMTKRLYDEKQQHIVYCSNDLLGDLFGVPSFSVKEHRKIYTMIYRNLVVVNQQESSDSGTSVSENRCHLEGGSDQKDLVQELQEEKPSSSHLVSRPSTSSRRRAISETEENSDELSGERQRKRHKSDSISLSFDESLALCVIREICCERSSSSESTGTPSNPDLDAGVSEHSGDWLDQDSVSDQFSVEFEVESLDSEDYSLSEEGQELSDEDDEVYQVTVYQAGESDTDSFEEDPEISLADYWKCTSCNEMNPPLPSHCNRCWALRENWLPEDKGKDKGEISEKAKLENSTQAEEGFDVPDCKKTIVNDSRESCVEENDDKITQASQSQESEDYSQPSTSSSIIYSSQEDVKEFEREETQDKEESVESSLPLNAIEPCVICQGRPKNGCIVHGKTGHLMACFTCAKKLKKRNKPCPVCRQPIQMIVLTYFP

In the case of COc1ccc(-c2csc(NC(CO)c3nc4ccccc4n3Cc3ccc(C)cc3)n2)cc1 (stereo unspecified), the CC50 [1] is reported as > 40 µM (active).
For CN(C)c1nc(SCCOC(=O)COc2ccc(Cl)cc2Cl)nc(N(C)C)n1, the AC50 [2] was 26.1 µM (active).
With CCOc1ccc(N(CC(=O)Nc2ccccc2OC)S(=O)(=O)c2ccccc2)cc1 the EC50 [3] was 4.97 µM (active), the EC50 [4] was 323 nM (active) and the EC50 [5] was 360 nM (active). The EC50 (BJ [6]) was 20.3 µM (active), the EC50 (BJ [7]) was 804 nM (active) and the EC50 (BJ [8]) was 928 nM (active). For the same compound, the AC50 [2] was 30.7 µM (active) and the EC50 [9] was 663 nM (active).
In the case of CN1CCN(CCCNC(=O)c2ccc(/C=C3\Oc4ccccc4N(Cc4ccc(Cl)cc4)C3=O)cc2)CC1, the EC50 [10] is reported as > 150 µM (inconclusive), the IC50 (Bcl-2-related protein A1) is reported as > 20 µM (inactive) and the AC50 [11] is reported as 974 nM (active). For the same compound, the AC50 (Paired box protein Pax-8) was 16.9 µM (active), the AC50 [12] was 3.55 µM (active) and the IC50 [13] was 1.35 µM (active). The AC50 [14] was 17.9 µM (active), the IC50 [15] was 12.4 µM (active) and the EC50 [16] was > 38 µM (not active).
For OC[C@@H]1[C@@H](c2ccc(C#CC3CCCC3)cc2)[C@H]2CN(CCC(F)(F)F)CCCCN12, the AC50 [17] was 8.47 µM (active), the AC50 [18] was 1.02 µM (active) and the AC50 [2] was 12.9 µM (active).
With O=C(CN1CCN(c2ncccn2)CC1)NCc1ccccc1 the EC50 [19] was 34 µM (not active).
With C(=N\Nc1ncnc2sc3c(c12)CCC3)/c1cccs1 the AC50 (INS1) was 5.3 µM (active), the EC50 [20] was 15.8 µM (active) and the EC50 (Streptococcus) was 19.5 µM (active). For the same compound, the AC50 [12] was 5.38 µM (active), the “Absolute IC50 (XBP1)” value (X-box-binding protein 1) was 10 µM and the EC50 (Streptokinase A) was > 150 µM (not active). For the same compound, the CC50 [21] was 15.7 µM (active).
For Cc1cc(/C=N/n2cnnc2)c(C)n1-c1cccc(Cl)c1, the IC50 [22] was > 100 µM (active).
